Experimental data from the OligoGym collection.
Oligonucleotides are written 5' to 3', each unit as a sugar letter and its base; * is a phosphorothioate linkage, no mark a phosphodiester; rarer units and linkages stand in square brackets, end groups in braces. Plain capitals give the bases only. Oligonucleotides are given in HELM: sugar(base)linkage, 5' to 3'; d 2'-deoxyribose, r ribose, m 2'-O-methylribose, p phosphate. ss, as = sense and antisense strand; d = 2'-deoxy (DNA); r = 2'-OH (RNA)

target: CDC34; test: reporter assay of Huesken 2005; conditions: siRNA
Also: test concentration or dose not given here.

Substance	normalised inhibition (eCFP-eYFP dual reporter) [%]
RNA1{r(G)p.r(G)p.r(A)p.r(G)p.r(U)p.r(A)p.r(C)p.r(A)p.r(C)p.r(A)p.r(G)p.r(A)p.r(C)p.r(A)p.r(U)p.r(C)p.r(A)p.r(U)p.r(C)p.d(T)p.d(T)}|RNA2{r(G)p.r(A)p.r(U)p.r(G)p.r(A)p.r(U)p.r(G)p.r(U)p.r(C)p.r(U)p.r(G)p.r(U)p.r(G)p.r(U)p.r(A)p.r(C)p.r(U)p.r(C)p.r(C)p.d(C)p.d(G)}$$$RNA1{StrandType:ss}|RNA2{StrandType:as}$	76.6
RNA1{r(G)p.r(G)p.r(G)p.r(C)p.r(G)p.r(G)p.r(C)p.r(U)p.r(A)p.r(C)p.r(U)p.r(U)p.r(C)p.r(A)p.r(A)p.r(G)p.r(G)p.r(C)p.r(G)p.d(T)p.d(T)}|RNA2{r(C)p.r(G)p.r(C)p.r(C)p.r(U)p.r(U)p.r(G)p.r(A)p.r(A)p.r(G)p.r(U)p.r(A)p.r(G)p.r(C)p.r(C)p.r(G)p.r(C)p.r(C)p.r(C)p.d(T)p.d(C)}$$$RNA1{StrandType:ss}|RNA2{StrandType:as}$	29.8
RNA1{r(G)p.r(G)p.r(G)p.r(G)p.r(C)p.r(U)p.r(G)p.r(C)p.r(A)p.r(G)p.r(G)p.r(A)p.r(A)p.r(G)p.r(A)p.r(G)p.r(C)p.r(C)p.r(G)p.d(T)p.d(T)}|RNA2{r(C)p.r(G)p.r(G)p.r(C)p.r(U)p.r(C)p.r(U)p.r(U)p.r(C)p.r(C)p.r(U)p.r(G)p.r(C)p.r(A)p.r(G)p.r(C)p.r(C)p.r(C)p.r(C)p.d(T)p.d(T)}$$$RNA1{StrandType:ss}|RNA2{StrandType:as}$	47.6
RNA1{r(G)p.r(G)p.r(U)p.r(G)p.r(G)p.r(A)p.r(C)p.r(G)p.r(C)p.r(G)p.r(G)p.r(A)p.r(G)p.r(C)p.r(G)p.r(U)p.r(G)p.r(A)p.r(C)p.d(T)p.d(T)}|RNA2{r(G)p.r(U)p.r(C)p.r(A)p.r(C)p.r(G)p.r(C)p.r(U)p.r(C)p.r(C)p.r(G)p.r(C)p.r(G)p.r(U)p.r(C)p.r(C)p.r(A)p.r(C)p.r(C)p.d(T)p.d(T)}$$$RNA1{StrandType:ss}|RNA2{StrandType:as}$	53.4
RNA1{r(U)p.r(G)p.r(A)p.r(U)p.r(C)p.r(U)p.r(C)p.r(C)p.r(C)p.r(U)p.r(C)p.r(C)p.r(U)p.r(G)p.r(A)p.r(A)p.r(C)p.r(G)p.r(A)p.d(T)p.d(T)}|RNA2{r(U)p.r(C)p.r(G)p.r(U)p.r(U)p.r(C)p.r(A)p.r(G)p.r(G)p.r(A)p.r(G)p.r(G)p.r(G)p.r(A)p.r(G)p.r(A)p.r(U)p.r(C)p.r(A)p.d(C)p.d(A)}$$$RNA1{StrandType:ss}|RNA2{StrandType:as}$	70
RNA1{r(U)p.r(G)p.r(G)p.r(C)p.r(A)p.r(C)p.r(C)p.r(C)p.r(U)p.r(A)p.r(A)p.r(C)p.r(A)p.r(U)p.r(C)p.r(U)p.r(A)p.r(C)p.r(G)p.d(T)p.d(T)}|RNA2{r(C)p.r(G)p.r(U)p.r(A)p.r(G)p.r(A)p.r(U)p.r(G)p.r(U)p.r(U)p.r(A)p.r(G)p.r(G)p.r(G)p.r(U)p.r(G)p.r(C)p.r(C)p.r(A)p.d(C)p.d(A)}$$$RNA1{StrandType:ss}|RNA2{StrandType:as}$	25.1
RNA1{r(U)p.r(G)p.r(G)p.r(C)p.r(C)p.r(G)p.r(A)p.r(G)p.r(U)p.r(A)p.r(C)p.r(U)p.r(G)p.r(C)p.r(G)p.r(U)p.r(G)p.r(A)p.r(A)p.d(T)p.d(T)}|RNA2{r(U)p.r(U)p.r(C)p.r(A)p.r(C)p.r(G)p.r(C)p.r(A)p.r(G)p.r(U)p.r(A)p.r(C)p.r(U)p.r(C)p.r(G)p.r(G)p.r(C)p.r(C)p.r(A)p.d(G)p.d(C)}$$$RNA1{StrandType:ss}|RNA2{StrandType:as}$	65.2

target: UBE2L3; test: reporter assay of Huesken 2005; conditions: siRNA

Substance	normalised inhibition (eCFP-eYFP dual reporter) [%]
sense rArArArCrArArArGrArUrCrUrArUrCrArCrCrCdTdT / antisense rGrGrGrUrGrArUrArGrArUrCrUrUrUrGrUrUrUdTdA	50.1
sense rArArCrCrGrArCrCrArArGrUrArArUrCrCrArGdTdT / antisense rCrUrGrGrArUrUrArCrUrUrGrGrUrCrGrGrUrUdTdT	66.6
sense rArArCrUrGrGrArArGrCrCrArGrCrArArCrCrAdTdT / antisense rUrGrGrUrUrGrCrUrGrGrCrUrUrCrCrArGrUrUdTdT	71.8
sense rArArGrCrCrArGrCrArArCrCrArArArArCrCrGdTdT / antisense rCrGrGrUrUrUrUrGrGrUrUrGrCrUrGrGrCrUrUdCdC	41.7
sense rArCrArUrCrGrArCrGrArArArArGrGrGrGrCrAdTdT / antisense rUrGrCrCrCrCrUrUrUrUrCrGrUrCrGrArUrGrUdTdT	64.5
sense rArCrCrArArGrUrArArUrCrCrArGrUrCrCrCrUdTdT / antisense rArGrGrGrArCrUrGrGrArUrUrArCrUrUrGrGrUdCdG	87.3
sense rArGrArUrCrUrArUrCrArCrCrCrArArArCrArUdTdT / antisense rArUrGrUrUrUrGrGrGrUrGrArUrArGrArUrCrUdTdT	73.1
sense rArGrCrArCrCrCrGrCrUrUrCrGrGrGrCrUrGrAdTdT / antisense rUrCrArGrCrCrCrGrArArGrCrGrGrGrUrGrCrUdCdA	37.6
sense rArGrCrCrUrGrArGrCrArCrCrCrGrCrUrUrCrGdTdT / antisense rCrGrArArGrCrGrGrGrUrGrCrUrCrArGrGrCrUdGdG	46.3
sense rArUrCrGrArCrGrArArArArGrGrGrGrCrArGrGdTdT / antisense rCrCrUrGrCrCrCrCrUrUrUrUrCrGrUrCrGrArUdGdT	32
sense rArUrUrGrArCrUrUrGrGrCrArArGrGrGrCrUrUdTdT / antisense rArArGrCrCrCrUrUrGrCrCrArArGrUrCrArArUdAdA	58.7
sense rArUrUrUrArArArArCrArArArGrArUrCrUrArUdTdT / antisense rArUrArGrArUrCrUrUrUrGrUrUrUrUrArArArUdGdT	65.5
sense rCrArArArArCrCrGrArCrCrArArGrUrArArUrCdTdT / antisense rGrArUrUrArCrUrUrGrGrUrCrGrGrUrUrUrUrGdGdT	56.2
sense rCrArArArGrArUrCrUrArUrCrArCrCrCrArArAdTdT / antisense rUrUrUrGrGrGrUrGrArUrArGrArUrCrUrUrUrGdTdT	82.8
sense rCrArArCrCrArArArArCrCrGrArCrCrArArGrUdTdT / antisense rArCrUrUrGrGrUrCrGrGrUrUrUrUrGrGrUrUrGdCdT	87
sense rCrArCrCrCrGrCrUrUrCrGrGrGrCrUrGrArCrCdTdT / antisense rGrGrUrCrArGrCrCrCrGrArArGrCrGrGrGrUrGdCdT	60
sense rCrArGrCrArArCrCrArArArArCrCrGrArCrCrAdTdT / antisense rUrGrGrUrCrGrGrUrUrUrUrGrGrUrUrGrCrUrGdGdC	60

Substance	normalised inhibition (eCFP-eYFP dual reporter) [%]
sense rCrArGrCrArGrArGrUrArCrCrCrArUrUrCrArAdTdT / antisense rUrUrGrArArUrGrGrGrUrArCrUrCrUrGrCrUrGdGdA	90
sense rCrArGrCrCrUrGrArGrCrArCrCrCrGrCrUrUrCdTdT / antisense rGrArArGrCrGrGrGrUrGrCrUrCrArGrGrCrUrGdGdG	37.1
sense rCrArGrGrUrUrGrArUrGrArArGrCrUrArArUrUdTdT / antisense rArArUrUrArGrCrUrUrCrArUrCrArArCrCrUrGdGdA	96.7
sense rCrArUrArGrCrArCrUrGrGrUrGrArArUrGrArCdTdT / antisense rGrUrCrArUrUrCrArCrCrArGrUrGrCrUrArUrGdAdG	80.9
sense rCrCrArArArArCrCrGrArCrCrArArGrUrArArUdTdT / antisense rArUrUrArCrUrUrGrGrUrCrGrGrUrUrUrUrGrGdTdT	84.6
sense rCrCrArArArCrArUrCrGrArCrGrArArArArGrGdTdT / antisense rCrCrUrUrUrUrCrGrUrCrGrArUrGrUrUrUrGrGdGdT	59.4
sense rCrCrArArGrUrArArUrCrCrArGrUrCrCrCrUrCdTdT / antisense rGrArGrGrGrArCrUrGrGrArUrUrArCrUrUrGrGdTdC	61.4
sense rCrCrArGrUrArArUrUrArGrUrGrCrCrGrArArAdTdT / antisense rUrUrUrCrGrGrCrArCrUrArArUrUrArCrUrGrGdCdA	82.8
sense rCrCrCrGrCrUrUrCrGrGrGrCrUrGrArCrCrUrAdTdT / antisense rUrArGrGrUrCrArGrCrCrCrGrArArGrCrGrGrGdTdG	62.3
sense rCrCrGrArArGrArUrCrArCrArUrUrUrArArArAdTdT / antisense rUrUrUrUrArArArUrGrUrGrArUrCrUrUrCrGrGdTdG	83.4
sense rCrCrGrUrArArCrArUrCrCrArGrGrUrUrGrArUdTdT / antisense rArUrCrArArCrCrUrGrGrArUrGrUrUrArCrGrGdAdA	61.4
sense rCrCrUrArGrCrUrGrArArGrArArUrArCrUrCrUdTdT / antisense rArGrArGrUrArUrUrCrUrUrCrArGrCrUrArGrGdTdC	63.9
sense rCrCrUrCrCrArUrArUrGrArUrArArGrGrGrArGdTdT / antisense rCrUrCrCrCrUrUrArUrCrArUrArUrGrGrArGrGdGdT	81.2
sense rCrGrGrGrCrUrGrArCrCrUrArGrCrUrGrArArGdTdT / antisense rCrUrUrCrArGrCrUrArGrGrUrCrArGrCrCrCrGdAdA	61.3
sense rCrUrCrArUrArGrCrArCrUrGrGrUrGrArArUrGdTdT / antisense rCrArUrUrCrArCrCrArGrUrGrCrUrArUrGrArGdGdG	77.1
sense rCrUrGrArGrCrArCrCrCrGrCrUrUrCrGrGrGrCdTdT / antisense rGrCrCrCrGrArArGrCrGrGrGrUrGrCrUrCrArGdGdC	51.7
sense rCrUrGrUrCrUrGrCrCrArGrUrArArUrUrArGrUdTdT / antisense rArCrUrArArUrUrArCrUrGrGrCrArGrArCrArGdAdC	52.5
